Reference: publication PMC6364417, “Kinase inhibitor library screening identifies synergistic drug combinations effective in sensitive and resistant melanoma cells” (Journal of Experimental & Clinical Cancer Research : CR, 2019)

How the values were obtained:
Assay in all cases: Kinase inhibitor library screening, PrestoBlue cell viability, 1 or 10 μM, 72 h
501Mel cells (parental) = details: 501Mel Parental, in %
Summary of the method: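 Sensitive parental cells and their resistant derivatives were exposed to library compounds for 72 h. Values represent viability as a percentage of untreated cells.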

[1] = system: 501Mel-GP cells (Dabrafenib-resistant); details: 501Mel GP, in %
[2] = system: 501Mel-XP cells (Vemurafenib-resistant); details: 501Mel XP, in %
A375 cells (parental) = details: A375 Parental
[3] = system: A375-GP cells (Dabrafenib-resistant); details: A375 GP
[4] = system: A375-XP cells (Vemurafenib-resistant); details: A375 XP
IGR37 cells (parental) = details: IGR37 Parental, in %
[5] = system: IGR37-GP cells (Dabrafenib-resistant); details: IGR37 GP
[6] = system: IGR37-XP cells (Vemurafenib-resistant); details: IGR37 XP

With `COc1cc2c(N3CCN(C(=O)Nc4ccc(OC(C)C)cc4)CC3)ncnc2cc1OCCCN1CCCCC1` [Tandutinib (MLN518)] the “cell viability, 501Mel Parental, 10μΜ” value (501Mel cells (parental); 10μΜ, 72 h) was 95.2, the “cell viability, 501Mel GP, 1μΜ” value ([1]; 1μΜ, 72 h) was 103.5 and the “cell viability, 501Mel GP, 10μΜ” value ([1]; 10μΜ, 72 h) was 85.5. The “cell viability, 501Mel XP, 1μΜ” value ([2]; 1μΜ, 72 h) was 94.1, the “cell viability, 501Mel XP, 10μΜ” value ([2]; 10μΜ, 72 h) was 71.2 and the “cell viability, A375 Parental, 1μΜ” value (A375 cells (parental); 1μΜ, 72 h, in %) was 106.1. The “cell viability, A375 Parental, 10μΜ” value (A375 cells (parental); 10μΜ, 72 h, in %) was 89.7, the “cell viability, A375 GP, 10μΜ” value ([3]; 10μΜ, 72 h, in %) was 83.5 and the “cell viability, A375 XP, 1μΜ” value ([4]; 1μΜ, 72 h, in %) was 107.0. The “cell viability, IGR37 Parental, 1μΜ” value (IGR37 cells (parental); 1μΜ, 72 h) was 100.2, the “cell viability, IGR37 Parental, 10μΜ” value (IGR37 cells (parental); 10μΜ, 72 h) was 98.5 and the cell viability, IGR37 GP, 10μΜ ([5]; 10μΜ, 72 h) was 91.4%. The “cell viability, IGR37 GP, 1μΜ” value ([5]; 1μΜ, 72 h, in %) was 95.6, the cell viability, IGR37 XP, 10μΜ ([6]; 10μΜ, 72 h) was 43.4% and the “cell viability, IGR37 XP, 1μΜ” value ([6]; 1μΜ, 72 h, in %) was 103.1.
With `CNC(=O)c1cc(COc2nnc(Nc3ccc(Cl)cc3)c3ccoc23)ccn1` [Telatinib (BAY 57-9352)] the “cell viability (kinase inhibitor library screening)” value (501Mel cells (parental); 1μΜ) was 96.8, the “cell viability (kinase inhibitor library screening)” value (501Mel cells (parental); 10μΜ) was 90.0 and the “cell viability (kinase inhibitor library screening)” value ([1]; 1μΜ) was 99.0. The “cell viability (kinase inhibitor library screening)” value ([1]; 10μΜ) was 76.1, the “cell viability (kinase inhibitor library screening)” value ([2]; 10μΜ) was 68.9 and the “cell viability (kinase inhibitor library screening)” value (A375 cells (parental); 1μΜ, in %) was 99.4. For the same compound, the “cell viability (kinase inhibitor library screening)” value (A375 cells (parental); 10μΜ, in %) was 95.9, the “cell viability (kinase inhibitor library screening)” value ([3]; 1μΜ, in %) was 98.3 and the “cell viability (kinase inhibitor library screening)” value ([3]; 10μΜ, in %) was 92.0. For the same compound, the “cell viability (kinase inhibitor library screening)” value ([4]; 1μΜ, in %) was 96.6, the “cell viability (kinase inhibitor library screening)” value ([4]; 10μΜ, in %) was 95.7 and the “cell viability (kinase inhibitor library screening)” value (IGR37 cells (parental); 1μΜ) was 99.2. The “cell viability (kinase inhibitor library screening)” value (IGR37 cells (parental); 10μΜ) was 97.3, the “cell viability (kinase inhibitor library screening)” value ([5]; 1μΜ, in %) was 94.5 and the “cell viability (kinase inhibitor library screening)” value ([5]; 10μΜ, in %) was 88.0. The “cell viability (kinase inhibitor library screening)” value ([6]; 1μΜ, in %) was 98.1 and the “cell viability (kinase inhibitor library screening)” value ([6]; 10μΜ, in %) was 70.8.
With `CO[C@H]1C[C@@H]2CC[C@@H](C)[C@@](O)(O2)C(=O)C(=O)N2CCCC[C@H]2C(=O)O[C@H]([C@H](C)C[C@@H]2CC[C@@H](OC(=O)C(C)(CO)CO)[C@H](OC)C2)CC(=O)[C@H](C)/C=C(\C)[C@@H](O)[C@@H](OC)C(=O)[C@H](C)C[C@H](C)/C=C/C=C/C=C/1C` [Temsirolimus (Torisel)] the “Cell viability in kinase inhibitor library screening, 501Mel Parental, 1μΜ” value (501Mel cells (parental); 1μΜ, 72 h) was 83.5, the “Cell viability in kinase inhibitor library screening, 501Mel Parental, 10μΜ” value (501Mel cells (parental); 10μΜ, 72 h) was 79.5 and the “Cell viability in kinase inhibitor library screening, 501Mel GP, 1μΜ” value ([1]; 1μΜ, 72 h) was 69.5. For the same compound, the “Cell viability in kinase inhibitor library screening, 501Mel GP, 10μΜ” value ([1]; 10μΜ, 72 h) was 60.0, the “Cell viability in kinase inhibitor library screening, 501Mel XP, 1μΜ” value ([2]; 1μΜ, 72 h) was 55.1 and the “Cell viability in kinase inhibitor library screening, 501Mel XP, 10μΜ” value ([2]; 10μΜ, 72 h) was 41.2. For the same compound, the “Cell viability in kinase inhibitor library screening, A375 Parental, 10μΜ” value (A375 cells (parental); 10μΜ, 72 h) was 73.5, the “Cell viability in kinase inhibitor library screening, A375 Parental, 1μΜ” value (A375 cells (parental); 1μΜ, 72 h) was 78.4 and the “Cell viability in kinase inhibitor library screening, A375 GP, 1μΜ” value ([3]; 1μΜ, 72 h) was 81.2. The “Cell viability in kinase inhibitor library screening, A375 GP, 10μΜ” value ([3]; 10μΜ, 72 h) was 73.7, the “Cell viability in kinase inhibitor library screening, A375 XP, 1μΜ” value ([4]; 1μΜ, 72 h) was 81.1 and the “Cell viability in kinase inhibitor library screening, A375 XP, 10μΜ” value ([4]; 10μΜ, 72 h) was 78.8. The “Cell viability in kinase inhibitor library screening, IGR37 Parental, 1μΜ” value (IGR37 cells (parental); 1μΜ, 72 h) was 79.0, the “Cell viability in kinase inhibitor library screening, IGR37 Parental, 10μΜ” value (IGR37 cells (parental); 10μΜ, 72 h) was 82.7 and the Cell viability in kinase inhibitor library screening, IGR37 GP, 10μΜ ([5]; 10μΜ, 72 h) was 41.7%. The “Cell viability in kinase inhibitor library screening, IGR37 GP, 1μΜ” value ([5]; 1μΜ, 72 h, in %) was 91.9, the Cell viability in kinase inhibitor library screening, IGR37 XP, 10μΜ ([6]; 10μΜ, 72 h) was 5.5% and the “Cell viability in kinase inhibitor library screening, IGR37 XP, 1μΜ” value ([6]; 1μΜ, 72 h, in %) was 96.0.
